Assay [1] deals with pancreatic cancer cells. Nature of the assay: Test Example 1: pancreatic cancer cells transplanted into BALB/c nude mouse, tumor volume and body weight. The note with it: 4.5 mg/kg/day × 14 days, subcutaneous continuous infusion. Format: in vivo. The procedure:
5×10^6 cells of pancreatic cancer cells were transplanted into the right abdomen of a BALB/c nude mouse, and after 7 days, at the time point at which the average tumor size reached 100 mm^3, drug administration was initiated. Up to 29 days from the time of drug administration, the body weight of the mouse and the tumor volume were measured. The results are presented in FIG. 11, FIG. 12, and Table 1. Subcutaneous continuous infusion of 1-(2′-cyano-2′-deoxy-β-D-arabinofuranosyl)cytosine hydrochloride (DFP-10917) at a dose of 4.5 mg/kg/day was continuously performed for two weeks using a micropump embedded in the body of the mouse. In contrast, Compound (1a) was intravenously administered once a week at a dose of 100 mg/kg, 200 mg/kg, or 300 mg/kg. The dosage of this Compound (1a) is administration once a week at a dose of 2.4 mg/kg, 4.8 mg/kg, or 7.2 mg/kg, as converted to […]. For the control, a buffer solution (pH=5.0) of sodium acetate was administered.

For assay [2], the system named is Human lung cancer cell A549 cells. Nature of the assay: Test Example 5 (second): human lung cancer cell A549 transplanted into nude mouse, Tables 5 and 6. The format is in vivo, BALB/c nude mouse. The settings on record: once a day, for 2 weeks. From the text:
Human lung cancer cell A549 cells were transplanted into the right abdomen of a BALB/c nude mouse, and after 11 days, at the time point at which the average tumor size reached 200 mm^3, drug administration was initiated.

The test system of assay [3] is human breast cancer cell BT474. Nature of the assay: Test Example 4: human breast cancer cell BT474 transplanted into nude mouse. The format is in vivo, BALB/c nude mouse. The settings on record: 100 mg/kg once a week, total dosage 200 mg/kg. On the procedure:
Compound (1a) was intravenously administered once a week at a dose of 200 mg/kg (the amount as converted to DFP-10917 was 4.8 mg/kg), and pemetrexed, which is a standard drug for lung cancer, was intraperitoneally administered once a week at a dose of 300 mg/kg. For the control, physiological saline was intravenously administered once a week. The observation was made for two weeks (administered two times in total). 1×10^7 cells of human breast cancer cell BT474 were transplanted into the right abdomen of a BALB/c nude mouse, and drugs were administered in the same manner as in Test Example 3. DFP-10917 and Compound (1a) were intravenously administered once a week, two times in total. For the control, physiological saline was administered once a week.

Assay [4] has as its system human pancreatic cancer cell Panc-1. In words: Test Example 5: human pancreatic cancer cell Panc-1 transplanted into nude mouse. Format: in vivo, BALB/c nude mouse. The settings on record: 100 mg/kg iv, repeated four times, total dosage 400 mg/kg. On the procedure:
Compound (1a) was intravenously administered once a week at a dose of 200 mg/kg (the amount as converted to DFP-10917 was 4.8 mg/kg), and pemetrexed, which is a standard drug for lung cancer, was intraperitoneally administered once a week at a dose of 300 mg/kg. For the control, physiological saline was intravenously administered once a week. The observation was made for two weeks (administered two times in total). 5×10^6 cells of human pancreatic cancer cell Panc-1 were transplanted into the right abdomen of a BALB/c nude mouse, and drugs were administered in the same manner as in Test Example 3. Compound (1g) was intravenously administered once a week, two times in total, or twice a week. Gemcitabine was administered such that 100 mg/kg was administered in four divided portions over 3 days, and this intravenous administration was repeated four times in total. For the control, physiological saline was administered once a week.

In assay [5] the test system is human breast cancer cell BT474. In words: Test Example 6: human breast cancer cell BT474 transplanted into nude mouse. Format: in vivo, BALB/c nude mouse. The settings on record: 5 mg/kg iv, once a week, for 2 weeks. On the procedure: 1×10^7 cells of human breast cancer cell BT474 were transplanted into the right abdomen of a BALB/c nude mouse, and when the tumor volume reached 100 to 150 mm^3, drugs were administered. The administration was implemented once a week for two weeks.

For assay [6], the system named is human lung cancer cell A549. In words: Test Example 3: human lung cancer cell A549 transplanted into nude mouse. Format: in vivo, BALB/c nude mouse. The note with it: 300 mg/kg intraperitoneally once a week, total dosage 600 mg/kg, two weeks. The procedure: 5×10^6 cells of human lung cancer cell A549 were transplanted into the right abdomen of a BALE/c nude mouse, and after 14 days, at the time at which the average tumor size reached 127 mm^3, drug administration was initiated. Compound (1a) was intravenously administered once a week at a dose of 200 mg/kg (the amount as converted to DFP-10917 was 4.8 mg/kg), and pemetrexed, which is a standard drug for lung cancer, was intraperitoneally administered once a week at a dose of 300 mg/kg. For the control, physiological saline was intravenously administered once a week. The observation was made for two weeks (administered two times in total).

As to `Cl.N#C[C@H]1[C@H](O)[C@@H](CO)O[C@H]1n1ccc(N)nc1=O` [DFP-10917, 1-(2′-cyano-2′-deoxy-β-D-arabinofuranosyl)cytosine hydrochloride], in assay [1], the “TGI (D 29, %) tumor growth inhibition” value is given as 37.7%. The “Tumor Volume (D 29, mm^3)” value in assay [1] (Mean ± SEM) came to 917 ± 72 mm^3.

In the case of `CCNCCNC(=O)c1c(C)[nH]c(/C=C2\C(=O)Nc3ccc(F)cc32)c1C` [De-ethylated form of sunitinib], in assay [2] (50 mg/kg po), the “TGI (D 29, %)” value turned out to be 43.1% and the “Tumor Volume (D 29, mm^3)” value was found to be 687 ± 103 mm^3.

On to `Nc1ccn([C@@H]2O[C@H](CO)[C@@H](O)C2(F)F)c(=O)n1` [Gemcitabine, gemcitabine], for which the entries for the “TGI (tumor growth inhibition)” value in assay [3] and in assay [4] were 43 and 63.6, respectively. Besides, the “Tumor Volume” value in assay [3] amounted to 525 ± 95; in assay [4] (in mm³ (unit assumed)) it was 370 ± 37.

With `CS(=O)(=O)CCNCc1ccc(-c2ccc3ncnc(Nc4ccc(OCc5cccc(F)c5)c(Cl)c4)c3c2)o1` [Lapatinib, lapatinib], in assay [2] (100 mg/kg po), the “TGI (D 29, %)” value amounted to 25.6% and the “Tumor Volume (D 29, mm^3)” value is 898 ± 120 mm^3.

With `CC(=O)O[C@H]1C(=O)[C@@]2(C)[C@H]([C@H](OC(=O)c3ccccc3)[C@]3(O)C[C@H](OC(=O)[C@H](O)[C@@H](NC(=O)c4ccccc4)c4ccccc4)C(C)=C1C3(C)C)[C@]1(OC(C)=O)CO[C@@H]1C[C@@H]2O` [Paclitaxel, paclitaxel], in assay [5], the “TGI (D 23, %) tumor growth inhibition ratio” value is given as 29.8% and the “Tumor Volume (D 23, mm^3)” value is reported as 275 ± 39 mm^3.

Take `Nc1nc2[nH]cc(CCc3ccc(C(=O)N[C@@H](CCC(=O)O)C(=O)O)cc3)c2c(=O)[nH]1` [Pemetrexed, pemetrexed]: in assay [6], the “TGI (tumor growth inhibition)” value is on record as 30. Also, the “Tumor Volume” value in assay [6] (in mm³) amounted to 818 ± 44.

The values above are taken from patent publication US10111955B2, “PEG derivative” (priority 2014, dated 2018).
